Results on one compound are retold here after US20120027862A1, “Azelaic acid-comprising formulation with added pigment” (INTENDIS GMBH, priority 2010, published 2012).

Where “and” joins values, the source holds several entries; their conditions need not be identical. Equal entries are not always repeated.

What all share (assay type): cell-based, human
The subject of assay [1] is HaCaT cells. Description: Overall anti-inflammatory effect in UVB-irradiated skin cell cultures (HaCaT). Particulars: addition of azelaic acid. As for the experimental part: HaCaT cells originate from a spontaneously immortalized permanent human keratinocyte cell line established by long-term cultivation of adult human keratinocytes under reduced calcium concentration and elevated temperature (Boukamp et al. J Cell Biol 106:761-771, 1988). HaCaT cells were propagated in culture medium. This consists of 88 ml DMEM/Ham's F12 w/o glutamine, 10 ml foetal calf serum, 1 ml penicillin/streptomycin solution with 10,000 units/ml and 1 ml of glutamine. […] HaCaT cells were sown in 6-well or 12-well plates at a cell number of 3×10^5 and 1.5×10^5 cells/well, respectively. The cells were cultivated to about 80% confluence in culture medium. 2 h prior to the intended UV irradiation, the cells were incubated with the above-mentioned substances. Immediately before the irradiation, the cells were washed 2× with PBS and irradiated therein. […] The protein concentration was determined using a commercial kit from Meso Scale Discovery, Gaithersburg, Md., USA. […] The samples were then washed once more, 150 μl of read buffer were pipetted into the mixture and the electrochemiluminescence was measured in an MSD Sector plate reader. […] The cytokines IL-1β (A), IL-6 (B), TNFα (C), VEGF (D) and MCP-1/CCL2 (E) were measured in the supernatant in triplicate after 24 (series I) and 48 h (series II) using Mesoscale. […]

Assay [2] concerns MCP-1. Description: MCP-1/CCL2 in supernatants of UVB-irradiated HaCaT cells. Particulars: UVB 100 mJ irradiated, azelaic acid 20 mM, pigment 3%. As for the experimental part:
(§1) HaCaT cells originate from a spontaneously immortalized permanent human keratinocyte cell line established by long-term cultivation of adult human keratinocytes under reduced calcium concentration and elevated temperature (Boukamp et al. J Cell Biol 106:761-771, 1988). HaCaT cells were propagated in culture medium. This consists of 88 ml DMEM/Ham's F12 w/o glutamine, 10 ml foetal calf serum, 1 ml penicillin/streptomycin solution with 10,000 units/ml and 1 ml of glutamine. […] HaCaT cells were sown in 6-well or 12-well plates at a cell number of 3×10^5 and 1.5×10^5 cells/well, respectively. The cells were cultivated to about 80% confluence in culture medium. 2 h prior to the intended UV irradiation, the cells were incubated with the above-mentioned substances. Immediately before the irradiation, the cells were washed 2× with PBS and irradiated therein. Irradiation was with UVB (spectrum: 280-360 nM, max. 320 nM) in a Waldmann-UVB source UV7002 at 100 mJ. After the UV irradiation, the cells were irradiated in culture medium in the presence and absence of the abovementioned substances. The cultures were stopped 24 h or 48 h after the UVB irradiation, and the supernatant was removed and centrifuged to remove debris and titanium dioxide-coated potassium aluminium silicate. All cultures were set up in triplicate. The supernatants were frozen at -80° C. until further use. The protein concentration was determined using a commercial kit from Meso Scale Discovery, Gaithersburg, Md., USA. The test was carried out in accordance with the instructions of the manufacturer (www.mesoscale.com). […] The samples were then washed once more, 150 μl of read buffer were pipetted into the mixture and the electrochemiluminescence was measured in an MSD Sector plate reader. […] The following cell cultures were prepared: • unirradiated HaCaTs • irradiated HaCaTs (100 mJ) • irradiated HaCaTs (100 mJ) in the presence of azelaic acid, • irradiated HaCaTs (100 mJ) in the presence of azelaic acid and titanium dioxide-coated potassium aluminium silicate The following reagents were used to treat the cells: • azelaic acid, Fluka, batch S3317131508B29, 20 mM • titanium dioxide-coated potassium aluminium silicate, Merck Darmstadt, batch W08012807X, 3% The following cytokines/chemokines were analyzed: • IL-1β • IL-6 • TNF-α • VEGF • MCP-1=CCL2 HaCaT cells were cultivated in triplicates, irradiated with 100 mJ UVB and then cultivated in the presence or absence of azelaic acid and, if appropriate, titanium dioxide-coated potassium aluminium silicate or the combination thereof for 24 or 48 h. […] The cytokines IL-1β (A), IL-6 (B), TNFα (C), VEGF (D) and MCP-1/CCL2 (E) were measured in the supernatant in triplicate after 24 (series I) and 48 h (series II) using Mesoscale. […]

The test system of assay [3] is TNF-α. Description: TNF-α in supernatants of UVB-irradiated HaCaT cells. Particulars: UVB 100 mJ irradiated, azelaic acid 20 mM, pigment 3%. As to the method: (§2) HaCaT cells originate from a spontaneously immortalized permanent human keratinocyte cell line established by long-term cultivation of adult human keratinocytes under reduced calcium concentration and elevated temperature (Boukamp et al. J Cell Biol 106:761-771, 1988). HaCaT cells were propagated in culture medium. This consists of 88 ml DMEM/Ham's F12 w/o glutamine, 10 ml foetal calf serum, 1 ml penicillin/streptomycin solution with 10,000 units/ml and 1 ml of glutamine. […] HaCaT cells were sown in 6-well or 12-well plates at a cell number of 3×10^5 and 1.5×10^5 cells/well, respectively. The cells were cultivated to about 80% confluence in culture medium. 2 h prior to the intended UV irradiation, the cells were incubated with the above-mentioned substances. Immediately before the irradiation, the cells were washed 2× with PBS and irradiated therein. Irradiation was with UVB (spectrum: 280-360 nM, max. 320 nM) in a Waldmann-UVB source UV7002 at 100 mJ. […] The protein concentration was determined using a commercial kit from Meso Scale Discovery, Gaithersburg, Md., USA. […] The samples were then washed once more, 150 μl of read buffer were pipetted into the mixture and the electrochemiluminescence was measured in an MSD Sector plate reader. […] The following cell cultures were prepared: • unirradiated HaCaTs • irradiated HaCaTs (100 mJ) • irradiated HaCaTs (100 mJ) in the presence of azelaic acid, • irradiated HaCaTs (100 mJ) in the presence of azelaic acid and titanium dioxide-coated potassium aluminium silicate The following reagents were used to treat the cells: • azelaic acid, Fluka, batch S3317131508B29, 20 mM • titanium dioxide-coated potassium aluminium silicate, Merck Darmstadt, batch W08012807X, 3% The following cytokines/chemokines were analyzed: • IL-1β • IL-6 • TNF-α • VEGF • MCP-1=CCL2 HaCaT cells were cultivated in triplicates, irradiated with 100 mJ UVB and then cultivated in the presence or absence of azelaic acid and, if appropriate, titanium dioxide-coated potassium aluminium silicate or the combination thereof for 24 or 48 h. […]

Assay [4] concerns IL-1β. Description: IL-1β in supernatants of UVB-irradiated HaCaT cells. Particulars: UVB 100 mJ irradiated, azelaic acid 20 mM, pigment 3%. As to the method: as §1
Assay [5] deals with IL-6. Description: IL-6 in supernatants of UVB-irradiated HaCaT cells. Conditions: UVB 100 mJ irradiated, azelaic acid 20 mM, pigment 3%. As for the experimental part: as §2
Assay [6] deals with VEGF. Description: VEGF in supernatants of UVB-irradiated HaCaT cells. As to the method: HaCaT cells originate from a spontaneously immortalized permanent human keratinocyte cell line established by long-term cultivation of adult human keratinocytes under reduced calcium concentration and elevated temperature (Boukamp et al. J Cell Biol 106:761-771, 1988). HaCaT cells were propagated in culture medium. This consists of 88 ml DMEM/Ham's F12 w/o glutamine, 10 ml foetal calf serum, 1 ml penicillin/streptomycin solution with 10,000 units/ml and 1 ml of glutamine. […] HaCaT cells were sown in 6-well or 12-well plates at a cell number of 3×10^5 and 1.5×10^5 cells/well, respectively. The cells were cultivated to about 80% confluence in culture medium. 2 h prior to the intended UV irradiation, the cells were incubated with the above-mentioned substances. Immediately before the irradiation, the cells were washed 2× with PBS and irradiated therein. Irradiation was with UVB (spectrum: 280-360 nM, max. 320 nM) in a Waldmann-UVB source UV7002 at 100 mJ. After the UV irradiation, the cells were irradiated in culture medium in the presence and absence of the abovementioned substances. The cultures were stopped 24 h or 48 h after the UVB irradiation, and the supernatant was removed and centrifuged to remove debris and titanium dioxide-coated potassium aluminium silicate. All cultures were set up in triplicate. The supernatants were frozen at -80° C. until further use. The protein concentration was determined using a commercial kit from Meso Scale Discovery, Gaithersburg, Md., USA. The test was carried out in accordance with the instructions of the manufacturer (www.mesoscale.com). After addition of the blocking solution to the plates precoated with scavenger antibodies, the samples were incubated for 1 h and then washed. […] After this time, the detection antibody was added for 1 h. The samples were then washed once more, 150 μl of read buffer were pipetted into the mixture and the electrochemiluminescence was measured in an MSD Sector plate reader. […] The following cell cultures were prepared: • unirradiated HaCaTs • irradiated HaCaTs (100 mJ) • irradiated HaCaTs (100 mJ) in the presence of azelaic acid, • irradiated HaCaTs (100 mJ) in the presence of azelaic acid and titanium dioxide-coated potassium aluminium silicate The following reagents were used to treat the cells: • azelaic acid, Fluka, batch S3317131508B29, 20 mM • titanium dioxide-coated potassium aluminium silicate, Merck Darmstadt, batch W08012807X, 3% The following cytokines/chemokines were analyzed: • IL-1β • IL-6 • TNF-α • VEGF • MCP-1=CCL2 HaCaT cells were cultivated in triplicates, irradiated with 100 mJ UVB and then cultivated in the presence or absence of azelaic acid and, if appropriate, titanium dioxide-coated potassium aluminium silicate or the combination thereof for 24 or 48 h. The supernatants were then used to measure proinflammatory cytokines. The cytokines IL-1β (A), IL-6 (B), TNFα (C), VEGF (D) and MCP-1/CCL2 (E) were measured in the supernatant in triplicate after 24 (series I) and 48 h (series II) using Mesoscale. What is shown are the mean values and also the respective individual values of the protein determinations.

Regarding `O=C(O)CCCCCCCC(=O)O` [Azelaic acid, azelaic acid], the “induction of the inflammatory cytokines (IL-1β, IL-6, TNF-α) after irradiation of keratinocytes” value in assay [1] is “can be reduced”. Also, the “MCP-1 in HACaT cell supernatants after 24 h, mean” value in assay [2] (24 h, mean n = 3) was determined as 683.2 pg/L. For the same compound, the “MCP-1 in HACaT cell supernatants after 24 h, individual values #1-#3” value in assay [2] (24 h, single cultures) is 520.8 pg/L and 908.9 pg/L and 619.9 pg/L. Further, the “MCP-1 in HACaT cell supernatants after 48 h, mean” value in assay [2] (48 h, mean n = 3) was 1190.1 pg/L. The “MCP-1 in HACaT cell supernatants after 48 h, individual values #1-#3” value in assay [2] (48 h, single cultures) is 1116.1 pg/L and 1279.9 pg/L and 1174.3 pg/L. In addition, the “TNF-α in HACaT cell supernatants after 24 h, mean” value in assay [3] (24 h, mean n = 3) is 7.2 pg/L. In assay [3] (24 h, single cultures), the “TNF-α in HACaT cell supernatants after 24 h, individual values #1-#3” value is 7.6 pg/L and 21.63 pg/L and 6.7 pg/L. The “TNF-α in HACaT cell supernatants after 48 h, mean” value in assay [3] (48 h, mean n = 3) was 30.0 pg/L. Besides, the “IL-1β in HACaT cell supernatants after 24 h, mean” value in assay [4] (24 h, mean n = 3) was 5.8 pg/L. Further, the “IL-1β in HACaT cell supernatants after 24 h, individual values #1-#3” value in assay [4] (24 h, single cultures) is 3.1 pg/l (2×) and 11.3 pg/l. In addition, the “IL-1β in HACaT cell supernatants after 48 h, mean” value in assay [4] (48 h, mean n = 3) worked out at 10.4 pg/L. Moreover, the IL-1β in HACaT cell supernatants after 48 h, individual values #1-#3 in assay [4] (48 h, single cultures) was 7.2 pg/mL and 14.3 pg/mL and 9.7 pg/mL. In addition, the “IL-6 in HACaT cell supernatants after 24 h, mean” value in assay [5] (24 h, mean n = 3) was 44.3 pg/L. The “IL-6 in HACaT cell supernatants after 24 h, individual values #1-#3” value in assay [5] (24 h, single cultures) is 24.7 pg/L and 70.9 pg/L and 37.4 pg/L. Also, in assay [5] (48 h, mean n = 3), the “IL-6 in HACaT cell supernatants after 48 h, mean” value was 120.7 pg/L. Moreover, the “VGEF in HACaT cell supernatants after 24 h, mean” value in assay [6] (UVB 100 mJ irradiated, 24 h, azelaic acid 20 mM, pigment 3%, mean n = 3) was 692.4 pg/L. Moreover, in assay [6] (UVB 100 mJ irradiated, 24 h, azelaic acid 20 mM, pigment 3%, single cultures), the “VGEF in HACaT cell supernatants after 24 h, individual values #1-#3” value is 633.4 pg/L and 1694.59 pg/L and 751.4 pg/L. For the same compound, the “VGEF in HACaT cell supernatants after 48 h, mean” value in assay [6] (UVB 100 mJ irradiated, 48 h, azelaic acid 20 mM, pigment 3%, mean n = 3) stood at 3999.0 pg/L. Also, the VGEF in HACaT cell supernatants after 48 h, individual values #1-#3 in assay [6] (UVB 100 mJ irradiated, 48 h, azelaic acid 20 mM, pigment 3%, single cultures) is 2950 pg/mL and 5810 pg/mL and 3240 pg/mL. Further, the “effect on the endothelial growth factor VEGF” value in assay [6] (keratinocytes, azelaic acid alone) was “leads to a reduction”.
